Measured values taken from the NIST ThermoML archive (doi:10.1021/je049823k).
± gives the expanded uncertainty stated by the source.

Conditions: Liquid, Transpiration method

OCc1ccccc1 [benzenemethanol]
Conditions	vapor or sublimation pressure [kPa]
282.9 K	0.00306 ± 0.00022
285.9 K	0.00407 ± 0.00029
288.9 K	0.00532 ± 0.00038
292.1 K	0.00738 ± 0.00052
295.3 K	0.00983 ± 0.00069
298.2 K	0.01251 ± 0.00088
301.2 K	0.01645 ± 0.0012
302.8 K	0.01923 ± 0.0014
305.8 K	0.02541 ± 0.0018
308.8 K	0.03192 ± 0.0022
311.7 K	0.03999 ± 0.0028
314.9 K	0.05172 ± 0.0036
318.1 K	0.06709 ± 0.0047
321.1 K	0.08348 ± 0.0059

CC(C)(C)OCc1ccccc1 [ether, benzyl tert-butyl]
Conditions	vapor or sublimation pressure [kPa]
277.8 K	0.00512 ± 0.00036
278.1 K	0.00528 ± 0.00037
279.1 K	0.00577 ± 0.00041
281.3 K	0.00698 ± 0.00049
282.9 K	0.00797 ± 0.00056
284.3 K	0.00893 ± 0.00063
286.2 K	0.01095 ± 0.00077
287.3 K	0.01177 ± 0.00082
287.8 K	0.01209 ± 0.00085
288.2 K	0.0131 ± 0.00095
290 K	0.01485 ± 0.001
292.2 K	0.0182 ± 0.0013
293 K	0.01888 ± 0.0013
293.2 K	0.01908 ± 0.0013
295.2 K	0.02312 ± 0.0016
296.2 K	0.02445 ± 0.0017
297.2 K	0.02652 ± 0.0019
298 K	0.02843 ± 0.002
298.2 K	0.02924 ± 0.0021
299.2 K	0.03085 ± 0.0022
300.3 K	0.03419 ± 0.0024
302.2 K	0.03875 ± 0.0027
303.1 K	0.04177 ± 0.0032
303.2 K	0.04305 ± 0.0033
308 K	0.05754 ± 0.004
